Measured values published in US6689806B1, “Indolinone compounds as kinase inhibitors” (Sugen, Inc., priority 1999, dated 2004).
Where two headings read alike, the source gives them in different places.

Assays:
EGFR = EGFR (Homo sapiens, UniProt P00533); assay: Biochemical EGFR assay (ELISA); parameters: A431 cell lysate; endogenous in cells; host or cells: A431; conditions: read-out: EGFr biochem IC50
Protocol: This assay measures the in vitro kinase activity of EGFR using ELISA.
1. Coat Coming 96 well ELISA plates with 0.5 μg SUMOl in 100 μL PBS per well, store overnight at 4° C.
5. Dilute lysate in PBS (7 μg lysate/100 μL PBS).
(§1) 6. Add 100 μL of diluted lysate to each well. Shake at room temperature for 60 min.
8. Add 120 μL TBS to ELISA plate containing captured EGFR.
9. Dilute test compound 1:10 in TBS in 96-well polypropylene plates (ie. 10 μL compound+90 μL TBS).
10. Add 13.5 μL diluted test compound to ELISA plate.
13. After 5 minutes, stop reaction by adding 16.5 μL of 200 mM EDTA (pH 8.0) to each well, shaking continuously. After the EDTA has been added, shake for 1 mm.
(§2) 15. Add 100 μL anti-phosphotyrosine (1:3000 dilution in TBST) per well. Incubate 30-45 min. at room temperature, with shaking.
(§3) 17. Add 100 μL Biosource Goat anti-rabbit IgG peroxidase conjugate (1:2000 dilution in TBST) to each well. Incubate 30 min. at room temperature, with shaking.
(§4) 19. Add 100 μL of ABTS/H2O2 solution to each well.
22. Read assay on Dynatech MR7000 ELISA reader. Test Filter: 410 nM Reference Filter: 630 Nm.

Her2 [1] = biological target: T1, Her2 (Homo sapiens, UniProt P04626); assay: HER-2 ELISA: EGF receptor-HER2 chimeric receptor assay in whole cells (HER2 kinase); type: cell-based; conditions: NIH3T3 cells with EGFR/HER2 chimeric receptor, phosphotyrosine ELISA
T1 construct: fused on or other part: P00533 (Epidermal growth factor receptor)
Protocol: Assay 1: EGF Receptor-HER2 Chimeric Receptor Assay In Whole Cells.
HER2 kinase activity in whole EGFR-NIH3T3 cells was measured as described below:
1. An NIH3T3 cell line overexpressing a chimeric receptor containing the EGFR extracellular domain and intracellular HER2 kinase domain can be used for this assay.
3. Resuspend cells in seeding medium (DMEM, 0.5% bovine serum), and count the cells using trypan blue. Viability above 90% is acceptable. Seed cells in DMEM medium (0.5% bovine serum) at a density of 10,000 cells per well, 100 μL per well, in a 96 well microtiter plate. Incubate seeded cells in 5% CO2 at 37° C. for about 40 hours.
1. Check seeded cells for contamination using an inverted microscope. Dilute drug stock (10 mg/mL in DMSO) 1:10 in DMEM medium, then transfer 5 μL to a TBST well for a final drug dilution of 1:200 and a final DMSO concentration of 1%. Control wells receive DMSO alone. Incubate in 5% CO2 at 37° C. for two hours.
2. Prepare EGF ligand: dilute stock EGF in DMEM so that upon transfer of 10 μL dilute EGF (1:12 dilution), 100 nM final concentration is attained.
4. After 120 minutes incubation with drug, add prepared […] ligand to cells, 10 μL per well, to a final concentration of 100 nM. Control wells receive DMEM alone. Incubate, shaking, at room temperature, for 5 minutes.
5. Remove drug, EGF, and DMEM. Wash cells twice with PBS. Transfer HNTG* to cells, 100 μL per well. Place on ice for 5 minutes. Meanwhile, remove blocking buffer from other ELISA plate and wash with TBST as described above.
6. With a pipette tip securely fitted to a micropipettor, scrape cells from plate and homogenize cell material by repeatedly aspirating and dispensing the HNTG* lysis buffer. Transfer lysate to a coated, blocked, and washed ELISA plate. Incubate shaking at room temperature for one hour.
7. Remove lysate and wash 4 times with TBST. Transfer freshly diluted anti-Ptyr antibody to ELISA plate at 100 μL per well. Incubate shaking at room temperature for 30 minutes in the presence of the anti-Ptyr antiserum (1:3000 dilution in TBST).
8. Remove the anti-Ptyr antibody and wash 4 times with TBST. Transfer the freshly diluted TAGO anti-rabbit IgG antibody to the ELISA plate at 100 μL per well. Incubate shaking at room temperature for 30 minutes (anti-rabbit IgG antibody: 1:3000 dilution in TBST).
9. Remove TAGO detection antibody and wash 4 times with TBST. Transfer freshly prepared ABTS/H2O2 solution to ELISA plate, 100 μL per well. Incubate shaking at room temperature for 20 minutes. (ABTS/H2O2 solution: 1.0 μL 30% H2O2 in 10 mL ABTS stock).
10. Stop reaction by adding 50 μL 5N H2SO4 (optional), and determine O.D. at 410 nm.
11. The maximal phosphotyrosine signal is determined by subtracting the value of the negative controls from the positive controls. The percent inhibition of phosphotyrosine content for extract-containing wells is then calculated, after subtraction of the negative controls.

SKOV3 = SKOV3 growth; type: cell-based; conditions: Homo sapiens, SK-OV-3, SKOV3 cells
Her2 [2] = biological target: T1, Her2; assay: EGF-induced Her2-driven BrdU incorporation; type: cell-based; conditions: Table 7; 3T3 cells with EGF-R/Her2 chimeric receptor, EGF 2 nM; read-out: BrdU DNA syn. HER2 IC50
Protocol: The cellular/biologic assays described herein measure the amount of DNA made in response to activation of a test kinase, which is a general measure of a proliferative response. The general procedure for this assay is as follows: a compound is introduced to cells expressing the test kinase, either naturally or recombinantly, for some period of time after which, if the test kinase is a receptor, a ligand known to activate the receptor is added. After incubation at least overnight, a DNA labeling reagent such as Bromodeoxy-uridine (BrdU) or 3H-thymidine is added. The amount of labeled DNA is detected with either an anti-BrdU antibody or by measuring radioactivity and is compared to control cells not contacted with a test compound.
EGF-Induced Her2-Driven BrdU Incorporation
(8) 3T3 cell line engineered to express a chimeric receptor having the extra-cellular domain of EGF-R and the intra-cellular domain of Her2.
(1) Cells are seeded at 8000 cells/well in DMEM, 10% CS, 2 mM Gln in a 96-well plate. Cells are incubated overnight at 37° C. in 5% CO2.
(2) After 24 hours, the cells are washed with PBS, and then are serum starved in serum free medium (0% CS DMEM with 0.1% BSA) for 24 hours.
(3) On day 3, ligand (EGF=2 nM, prepared in DMEM with 0.1% BSA) and test compounds are added to the cells simultaneously. The negative control wells receive serum free DMEM with 0.1% BSA only; the positive control cells receive the ligand (EGF) but no test compound. Test compounds are prepared in serum free DMEM with ligand in a 96 well plate, and serially diluted for 7 test concentrations.
(4) After 20 hours of ligand activation, diluted BrdU labeling reagent (1:100 in DMEM, 0.1% BSA) is added and the cells are incubated with BrdU (final concentration=[…]) for 1.5 hours.
(10) The absorbance of the samples are measured at 410 nm (in “dual wavelength” mode with a filter reading at 490 nm, as a reference wavelength) on a Dynatech ELISA plate reader.

A431 = A431 growth; type: cell-based; conditions: Homo sapiens, A-431, A431 cells
PDGFR = PDGFR (Homo sapiens, UniProt P09619); assay: Biochemical PDGFR assay (ELISA); parameters: expressed in transfected cells; host or cells: NIH 3T3; conditions: read-out: PDGFr biochem IC50
Protocol: This assay measures the in vitro kinase activity of PDGFR using ELISA.
6. PDGFR-β expressing NlH 3T3 cell lysate.
1. Coat Corning 96 well ELISA plates with 0.5 μg 28D4C10 in 100 μL PBS per well, store overnight at 4° C.
5. Dilute lysate in HNTG (10 μg lysate/100 μL HNTG)
as §1
8. Add 80 μL working kinase buffer mix to ELISA plate containing captured PDGFR.
9. Dilute test compound 1:10 in TBS in 96-well polypropylene plates (i.e., 10 μL compound+90 μL TBS).
10. Add 10 μL diluted test compound to ELISA plate.
11. Incubate for 30 minutes while shaking at room temperature.
12. Add 10 μL ATP directly to all wells except negative control well (final well volume should be approximately 100 μL with 20 μM ATP in each well.) Incubate 30 minutes while shaking.
13. After 30 minutes, stop reaction by adding 10 μL of 200 mM EDTA (pH 8.0) to each well.
as §2, §3, §4
22. Read assay on Dynatech MR7000 ELISA reader: test filter: 410 nM, reference filter: 630 nM.

[3] = Table 7, in vitro kinase activity
[4] = Table 5, in vitro kinase activity

T1 sequence (P04626 676-1255 limits assumed): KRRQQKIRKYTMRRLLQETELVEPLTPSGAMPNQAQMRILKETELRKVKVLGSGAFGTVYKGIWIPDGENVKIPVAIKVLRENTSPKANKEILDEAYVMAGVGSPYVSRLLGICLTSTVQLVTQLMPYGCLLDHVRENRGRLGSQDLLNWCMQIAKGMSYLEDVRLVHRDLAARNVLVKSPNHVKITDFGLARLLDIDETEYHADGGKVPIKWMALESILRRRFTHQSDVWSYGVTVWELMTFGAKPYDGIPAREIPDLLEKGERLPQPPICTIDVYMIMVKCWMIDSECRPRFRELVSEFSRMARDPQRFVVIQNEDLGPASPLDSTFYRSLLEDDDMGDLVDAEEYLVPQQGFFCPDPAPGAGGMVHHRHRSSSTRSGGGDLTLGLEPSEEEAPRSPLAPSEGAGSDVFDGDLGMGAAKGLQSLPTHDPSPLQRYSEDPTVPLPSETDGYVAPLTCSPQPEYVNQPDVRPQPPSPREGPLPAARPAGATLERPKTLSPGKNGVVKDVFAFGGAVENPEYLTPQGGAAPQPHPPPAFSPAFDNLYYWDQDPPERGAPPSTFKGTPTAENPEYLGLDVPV
PDGFR, sequence (P09619 33-1106): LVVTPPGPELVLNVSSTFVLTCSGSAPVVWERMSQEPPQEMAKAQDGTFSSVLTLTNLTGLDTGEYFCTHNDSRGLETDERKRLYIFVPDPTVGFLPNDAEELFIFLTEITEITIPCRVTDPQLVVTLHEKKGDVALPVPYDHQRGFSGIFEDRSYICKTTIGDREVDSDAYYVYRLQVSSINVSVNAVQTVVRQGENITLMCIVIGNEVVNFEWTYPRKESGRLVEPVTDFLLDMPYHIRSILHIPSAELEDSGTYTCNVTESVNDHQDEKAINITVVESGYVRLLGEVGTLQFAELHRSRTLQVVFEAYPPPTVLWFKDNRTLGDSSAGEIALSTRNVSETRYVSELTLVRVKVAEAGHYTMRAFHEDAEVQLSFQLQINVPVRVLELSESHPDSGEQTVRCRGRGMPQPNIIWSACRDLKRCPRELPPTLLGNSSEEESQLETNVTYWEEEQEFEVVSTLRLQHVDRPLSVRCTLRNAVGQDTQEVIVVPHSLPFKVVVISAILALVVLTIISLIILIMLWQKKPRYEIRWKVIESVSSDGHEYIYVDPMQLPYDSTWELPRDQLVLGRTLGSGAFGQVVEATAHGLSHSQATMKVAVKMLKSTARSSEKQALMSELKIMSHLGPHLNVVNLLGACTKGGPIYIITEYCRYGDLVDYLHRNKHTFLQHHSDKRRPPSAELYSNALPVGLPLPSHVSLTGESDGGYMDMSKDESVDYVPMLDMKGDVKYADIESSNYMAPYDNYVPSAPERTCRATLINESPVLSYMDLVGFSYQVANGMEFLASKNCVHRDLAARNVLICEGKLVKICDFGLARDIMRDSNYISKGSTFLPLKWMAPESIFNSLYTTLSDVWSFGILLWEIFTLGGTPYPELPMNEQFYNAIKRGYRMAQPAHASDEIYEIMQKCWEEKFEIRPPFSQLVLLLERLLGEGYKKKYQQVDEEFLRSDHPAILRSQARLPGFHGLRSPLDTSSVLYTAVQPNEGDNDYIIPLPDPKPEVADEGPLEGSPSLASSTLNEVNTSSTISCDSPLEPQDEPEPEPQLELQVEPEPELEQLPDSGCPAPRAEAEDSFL
EGFR, sequence (P00533 25-1210): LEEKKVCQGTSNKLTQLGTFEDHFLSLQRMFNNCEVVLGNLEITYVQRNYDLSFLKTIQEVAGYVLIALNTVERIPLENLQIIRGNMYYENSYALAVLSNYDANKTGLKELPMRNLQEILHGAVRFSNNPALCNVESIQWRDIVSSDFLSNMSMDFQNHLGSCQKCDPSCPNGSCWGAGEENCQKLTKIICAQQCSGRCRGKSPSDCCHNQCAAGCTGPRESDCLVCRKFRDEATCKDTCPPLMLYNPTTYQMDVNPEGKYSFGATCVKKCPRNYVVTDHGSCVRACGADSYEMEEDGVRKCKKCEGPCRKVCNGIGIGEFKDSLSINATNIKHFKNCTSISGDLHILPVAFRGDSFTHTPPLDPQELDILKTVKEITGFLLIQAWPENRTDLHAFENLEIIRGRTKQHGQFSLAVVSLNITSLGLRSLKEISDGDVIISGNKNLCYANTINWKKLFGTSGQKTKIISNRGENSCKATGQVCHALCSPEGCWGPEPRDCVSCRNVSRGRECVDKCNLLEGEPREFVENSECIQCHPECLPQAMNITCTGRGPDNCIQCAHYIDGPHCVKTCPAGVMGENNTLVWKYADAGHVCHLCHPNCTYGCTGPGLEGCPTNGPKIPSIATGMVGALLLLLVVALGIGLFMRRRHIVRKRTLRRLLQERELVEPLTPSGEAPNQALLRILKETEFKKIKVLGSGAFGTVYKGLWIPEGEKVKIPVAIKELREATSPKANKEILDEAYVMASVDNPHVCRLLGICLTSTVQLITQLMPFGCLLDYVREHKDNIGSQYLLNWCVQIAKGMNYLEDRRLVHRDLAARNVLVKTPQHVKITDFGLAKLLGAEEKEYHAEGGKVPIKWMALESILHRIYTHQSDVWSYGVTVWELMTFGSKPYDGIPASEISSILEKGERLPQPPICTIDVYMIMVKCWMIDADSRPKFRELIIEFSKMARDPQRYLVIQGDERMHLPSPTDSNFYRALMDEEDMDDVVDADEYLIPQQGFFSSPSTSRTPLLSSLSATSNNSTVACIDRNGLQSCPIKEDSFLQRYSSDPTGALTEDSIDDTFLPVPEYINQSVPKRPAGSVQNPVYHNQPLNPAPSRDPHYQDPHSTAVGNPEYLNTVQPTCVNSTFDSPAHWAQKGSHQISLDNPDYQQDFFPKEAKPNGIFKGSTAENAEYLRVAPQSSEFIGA

Row | Structure (SMILES) | IC50 (EGFR; [3]) [µM] | IC50 (Her2 [1]; Table 7) [µM] | IC50 (SKOV3; Table 7) [µM] | IC50 (Her2 [2]) [µM] | IC50 (A431; Table 7) [µM] | IC50 (PDGFR; [3]) [µM] | IC50 (EGFR; [4]) [µM] | IC50 (PDGFR; [4]) [µM] | IC50 (Her2 [1]; Table 5) [µM] | IC50 (SKOV3; Table 5) [µM] | IC50 (A431; Table 5) [µM]
1 | Cc1[nH]c(/C=C2\C(=O)Nc3cccc(CCO)c32)c(C)c1CCCN(C)C [IN-009, 3-[4-(3-Dimethylamino-propyl)-3,5-dimethyl-1H-pyrrol-2-ylmethylene]-4-(2-hydroxy-ethyl)-1,3-dihydro-indol-2-one] | > 100 | > 100 | 25.2 | 4.2 | 13.6 | – | – | – | – | – | –
2 | O=C1Nc2cccc(CCO)c2/C1=C/c1ccc2[nH]ccc2c1 [IN-007, 4-(2-Hydroxy-ethyl)-3-(1H-indol-5-ylmethylene)-1,3-dihydro-indol-2-one] | > 100 | 22.7 | 9.7 | – | 4.2 | > 100 | – | – | – | – | –
3 | O=C1Nc2cccc(CCO)c2C1Cc1ccccc1 (centres unmarked) [AAI-12, 3-Benzyl-4-(2-hydroxyethyl)-1,3-dihydroindol-2-one] | – | – | – | – | – | – | > 100 | > 100 | > 100 | > 50 | > 50
4 | COc1cc(C)c(CC2C(=O)Nc3ccccc32)cc1C(C)C (centres unmarked) [AAI-9, 3-(5-Isopropyl-4-methoxy-2-methylbenzyl)-1,3-dihydroindol-2-one] | – | – | – | – | – | – | > 100 | > 100 | > 100 | 5.2 | 5.25
